In ChEMBL document CHEMBL2074474, “Prodrugs of purine and pyrimidine analogues for the intestinal di/tri-peptide transporter PepT1: affinity for hPepT1 in Caco-2 cells, drug release in aqueous media and in vitro metabolism” (J Control Release, 2003):

Target: T1, Solute carrier family 15 member 1 (Homo sapiens, UniProt P46059)
T1 sequence (P46059 whole entry): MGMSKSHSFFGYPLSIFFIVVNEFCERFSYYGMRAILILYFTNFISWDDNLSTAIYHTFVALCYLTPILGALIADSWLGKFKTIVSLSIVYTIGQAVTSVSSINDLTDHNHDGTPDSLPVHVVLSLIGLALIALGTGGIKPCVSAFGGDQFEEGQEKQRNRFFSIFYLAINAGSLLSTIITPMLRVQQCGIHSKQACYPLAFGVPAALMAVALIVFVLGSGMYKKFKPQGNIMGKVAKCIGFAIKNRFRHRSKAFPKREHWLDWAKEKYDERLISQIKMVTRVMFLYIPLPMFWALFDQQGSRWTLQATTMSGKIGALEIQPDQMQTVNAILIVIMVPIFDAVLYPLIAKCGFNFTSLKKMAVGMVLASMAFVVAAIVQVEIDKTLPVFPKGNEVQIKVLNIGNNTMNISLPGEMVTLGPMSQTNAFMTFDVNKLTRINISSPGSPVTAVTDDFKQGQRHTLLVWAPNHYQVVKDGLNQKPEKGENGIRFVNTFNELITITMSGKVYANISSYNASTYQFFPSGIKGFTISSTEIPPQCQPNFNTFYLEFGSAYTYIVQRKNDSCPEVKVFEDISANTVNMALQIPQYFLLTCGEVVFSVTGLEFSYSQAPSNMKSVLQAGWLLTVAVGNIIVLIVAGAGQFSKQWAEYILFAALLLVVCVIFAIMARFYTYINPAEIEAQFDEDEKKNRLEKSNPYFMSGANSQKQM
Experiment: TP_TRANSPORTER: inhibition of Gly-Sar uptake in Caco-2 cells
Type: functional, cell-based

Ki [µM] | Structure (SMILES)
280 | CN(CC(=O)O)C(=O)[C@@H](N)CCC(=O)OCCOCn1cnc2c(=O)[nH]c(N)nc21
210 | Cc1cn(COC(=O)C(O)C[C@H](N)C(=O)N(C)CC(=O)O)c(=O)[nH]c1=O (some centres not stated)
